In US20090197851A1, “THERAPY AND USE OF COMPOUNDS IN THERAPY” (MAX-DELBRUCK-CENTRUM FUR MOLEKULARE MEDIZIN, priority 1999, published 2009):

Legend:
[1] = system: LPS-mediated TNF and IL6 production in whole blood; experiment: LPS-stimulated cytokine production in whole blood of healthy control subjects (Milenia whole blood assay); format: cell-based, human; conditions: LPS 50 pg/ml
Procedure: We have tested the ability of ursodeoxycholic acid (UDCA, FALK Pharma GmbH) to inhibit LPS-mediated TNF production in whole blood of healthy control subjects. Methods: Heparinized whole blood was diluted 1:10 with medium+/-LPS (50 pg/ml), +/-BPI (1 μg/ml), and +/-UDCA ([…]) according to the manufactorer's recommendation ([…] whole blood assay; DPC Biermann, Bad Nauheim, Germany) and incubated for 4 hours at 37° C. In the supernatant, we assessed concentrations of TNF and IL-6 using the semiautomated Immulite system (DPC-Biermann, Bad Nauheim, Germany).

[2] = system: LPS-mediated TNF and IL6 production in whole blood; experiment: LPS-stimulated cytokine production in whole blood of patients with cachexia due to liver cirrhosis (in vitro application); format: cell-based, human; conditions: 1 mg/ml UDCA, LPS 50 pg/ml, 4 hours
Procedure: We have tested the ability of ursodeoxycholic acid (UDCA, FALK Pharma GmbH) and BPi to inhibit LPS-mediated TNF production in whole blood of patients with cachexia.
(§1) We studied 4 patients with cachexia due to liver cirrhosis. The patients had all weight loss >7.5% compared to their previous normal weight. […] All patients were studied twice on 2 subsequent days (day “−1” and day “0”), see FIG. 9 to 12.
(§2) Methods: Heparinized whole blood was diluted 1:10 with medium+/−LPS (50 pg/ml), +/−BPI (1 μg/ml), and +/−UDCA (1 μg/ml-1 mg/ml) according to the manufactorer's recommendation (Milenia whole blood assay; DPC Biermann, Bad Nauheim, Germany) and incubated for 4 hours at 37° C. In the supernatant, we assessed concentrations of TNF and IL-6 using the semiautomated Immulite system (DPC-Biermann, Bad Nauheim, Germany).

[3] = system: monocyte generated cytokine production in response to LPS; conditions: in the concentrations used; Greve et al. Hepatology 1989; cited from earlier work
LPS effects [4] = conditions: high concentrations of LBP; cited from earlier work
[5] = system: LPS-induced TNF synthesis in monocytes; experiment: LPS-induced TNF synthesis in monocytes with pre-incubated serum; format: cell-based, human
Procedure: LPS-induced cytokine synthesis can be inhibited by serum lipoproteins. However, this is not easily seen experimentally, as it needs a certain pre-incubation procedure (18 hours at 37° C.) that we developed in our laboratory.
Methodology for example 4, 5, 7, and 8: TNF assessment: ELISA established in the laboratory of Dr. Schumann using 2 monoclonal antibodies (Pharmingen Inc., USA). Recombinant LBP: produced in the lab of Dr. Schumann. Lipoproteins: isolated from sera of healthy young volunteers, isolated by density gradient centrifugation, monocytes isolated also from blood of healthy young volunteers
Again, serum lacking lipoproteins was unable to block LPS-induced TNF synthesis. The ability to block LPS-induced TNF synthesis could be restored by addition of isolated lipoproteins. […] Methodology as in example 4

LPS effects [6] = conditions: high concentrations of LBP, as seen during the acute phase response; cited from earlier work
[7] = system: spontaneous production of TNF and IL6 of whole blood; experiment: Spontaneous production of TNF and IL6 in whole blood of patients with cachexia due to liver cirrhosis; format: cell-based, human; conditions: BPi 1 μg/ml, 8 experiments, p<0.05
Procedure: as §1, §2

[8] = 100 μg/ml UDCA, whole blood of healthy control subjects, 4 hours
[9] = 1 mg/ml UDCA, whole blood of healthy control subjects diluted 1:10, 4 hours at 37° C.

Molecule: C[C@H](CCC(=O)O)[C@H]1CC[C@H]2[C@@H]3[C@@H](O)C[C@@H]4C[C@H](O)CC[C@]4(C)[C@H]3CC[C@]12C [UDCA, ursodeoxycholic acid]
- reduction of LPS-stimulated IL6 production [1, 8]: 43%
- reduction of LPS-stimulated TNF production [1, 8]: 68%
- reduction of LPS-stimulated IL6 production [1, 9]: > 95%
- reduction of LPS-stimulated TNF production [1, 9]: > 95%
- reduction of LPS-stimulated TNF production (on average) ([2]; whole blood of 4 patients with cachexia due to liver cirrhosis): > 99%
- reduction of LPS-stimulated IL6 production (on average) ([2]; whole blood of patients with cachexia due to liver cirrhosis): 97%

Molecule: C[C@H](CCC(=O)O)[C@H]1CC[C@H]2[C@@H]3[C@H](O)C[C@@H]4C[C@H](O)CC[C@]4(C)[C@H]3CC[C@]12C [chenodeoxycholic acid]
- effectiveness on monocyte generated cytokine production in response to LPS [3]: less effective

B1: LBP: serum protein which binds to LPS; recombinant LBP produced in the lab of Dr. Schumann (protein, UniProt P18428 26-481, looked up)
Lipopolysaccharide-binding …: ANPGLVARITDKGLQYAAQEGLLALQSELLRITLPDFTGDLRIPHVGRGRYEFHSLNIHSCELLHSALRPVPGQGLSLSISDSSIRVQGRWKVRKSFFKLQGSFDVSVKGISISVNLLLGSESSGRPTVTASSCSSDIADVEVDMSGDLGWLLNLFHNQIESKFQKVLESRICEMIQKSVSSDLQPYLQTLPVTTEIDSFADIDYSLVEAPRATAQMLEVMFKGEIFHRNHRSPVTLLAAVMSLPEEHNKMVYFAISDYVFNTASLVYHEEGYLNFSITDDMIPPDSNIRLTTKSFRPFVPRLARLYPNMNLELQGSVPSAPLLNFSPGNLSVDPYMEIDAFVLLPSSSKEPVFRLSVATNVSATLTFNTSKITGFLKPGKVKVELKESKVGLFNAELLEALLNYYILNTFYPKFNDKLAEGFPLPLLKRVQLYDLGLQIHKDFLFLGANVQYMRV
- blocking of LPS effects in a murine sepsis model (LPS effects [4]): completely block LPS effects
- LPS-stimulated TNF production in a monocyte stimulation system ([5]; high concentrations added to normal serum (containing lipoproteins)): reduces LPS-stimulated TNF production
- inhibition of LPS activity (LPS-induced TNF production) ([5]; titrated into lipoprotein-deficient serum, high levels of LBP): inhibit LPS activity
- blocking of LPS effects in vitro (LPS effects [6]): completely block LPS effects

B2: BPi: protein found in human white blood cells that binds to and neutralises endotoxin (protein, UniProt P17213 32-487, looked up)
Bactericidal …: VNPGVVVRISQKGLDYASQQGTAALQKELKRIKIPDYSDSFKIKHLGKGHYSFYSMDIREFQLPSSQISMVPNVGLKFSISNANIKISGKWKAQKRFLKMSGNFDLSIEGMSISADLKLGSNPTSGKPTITCSSCSSHINSVHVHISKSKVGWLIQLFHKKIESALRNKMNSQVCEKVTNSVSSELQPYFQTLPVMTKIDSVAGINYGLVAPPATTAETLDVQMKGEFYSENHHNPPPFAPPVMEFPAAHDRMVYLGLSDYFFNTAGLVYQEAGVLKMTLRDDMIPKESKFRLTTKFFGTFLPEVAKKFPNMKIQIHVSASTPPHLSVQPTGLTFYPAVDVQAFAVLPNSSLASLFLIGMHTTGSMEVSAESNRLVGELKLDRLLLELKHSNIGPFPVELLQDIMNYIVPILVLPRVNEKLQKGFPLPTPARVQLYNVVLQPHQNFLLFGADVVYK
- spontaneous production of IL6 of whole blood [7]: reduced significantly
- spontaneous production of TNF of whole blood [7]: reduced significantly
